Experimental findings from US12221423B1, “3-(3-fluorophenyl)-5-(4-methoxybenzylthio)-4-phenyl-4H-1,2,4-triazole as an antimicrobial compound” (KING FAISAL UNIVERSITY, priority 2023, dated 2025) are described below.

Molecules are shown by their SMILES.

What all share (type): cell-based
For one test, the system named is Escherichia coli. As to the kind of experiment: Agar plate disc-diffusion, antibacterial inhibition zone. Conditions: Escherichia coli (Gram negative), nutrient agar, 37° C., 48 hours. How it is done: (§1) The agar plate disc-diffusion method was applied. […] The discs were then placed onto the surface of agar plates (nutrient agar for bacteria and Sabouraud's dextrose agar for fungi) seeded with the test organism. Each plate contained 15 mL of the agar medium, previously seeded with 0.2 mL of the broth culture of each organism pregrown for 18 hours. The plates were incubated at 37° C. for 48 hours, and 72 hours for fungi. The inhibition zones were measured in mm. Discs impregnated with DMSO were used as a control, and its inhibition zone was subtracted from the tested compound actual inhibition zone.

For another test, the system named is Pseudomonas aeruginosa. The test is described as above. The following applies: Pseudomonas aeruginosa (Gram negative), nutrient agar, 37° C., 48 hours. How it is done: as §1
A further test concerns Staphylococcus aureus. The test is described as above. The following applies: Staphylococcus aureus (Gram positive), nutrient agar, 37° C., 48 hours. How it is done:
as §1

The test system of a further test is Bacillus Cereus. The test is described as above. The following applies: Bacillus Cereus (Gram positive), nutrient agar, 37° C., 48 hours. As for the experimental part: as §1
The next test has as its system Aspergillus flavus. As to the kind of experiment: Agar plate disc-diffusion, antifungal inhibition zone. Conditions: Sabouraud's dextrose agar, 72 hours. How it is done:
as §1
In general terms: A growth-free zone around the sample is the usual read-out of agar diffusion tests.

Test [1] relates to Chrysosporium keratinophilum. The description is as above. Conditions: Sabouraud's dextrose agar, 72 hours. How it is done:
as §1

The mark [2] stands for this setting: A = concentration of comp. = 10,000 μL.
The mark [3] stands for this setting: B = concentration of comp. = 30,000 μL.
The mark [4] stands for this setting: C = concentration of comp. = 50,000 μL.

On to `COc1ccc(CSc2nnc(-c3cccc(F)c3)n2-c2ccccc2)cc1` [III, 3-(3-fluorophenyl)-5-(4-methoxybenzylthio)-4-phenyl-4H-1,2,4-triazole], for which the inhibition zone is on record as 27 mm with Escherichia coli (setting [2]); 35 mm with Escherichia coli (setting [3]); 48 mm in the test on Escherichia coli (setting [4]); 22 mm in the test with Pseudomonas aeruginosa (setting [2]); 25 mm with Pseudomonas aeruginosa (setting [3]); 36 mm with Pseudomonas aeruginosa (setting [4]). Besides, the inhibition zone in the test with Staphylococcus aureus (setting [2]) came to 16 mm; in the test on Staphylococcus aureus (setting [3]), 22 mm; in the test with Staphylococcus aureus (C = concentration of comp.), 34 mm; in the test on Bacillus Cereus (setting [2]) it was 24 mm; in the test on Bacillus Cereus (setting [3]) it was 27 mm; in the test on Bacillus Cereus (setting [4]) it was 40 mm. Further, the inhibition zone with Aspergillus flavus (setting [2]) is reported as 19 mm; in the test on Aspergillus flavus (setting [3]), 22 mm; in the test with Aspergillus flavus (setting [4]) it was 31 mm; in test [1] (setting [2]) it was 26 mm; in test [1] (setting [3]), 28 mm; in test [1] (setting [4]), 42 mm.
